Inconclusive results are not listed. Activity calls are given as the source filed them. The rule behind the calls is not given here.
Tests used:
[1] = blockers of dynein-driven microtubule transport – imaging, high-content imaging, dose response (AID 463136); details: HCS imaging, dynein-mediated cargo transport inhibition; inhibition at max concentration; at 50 µM; stronger effect = higher value;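 note: mouse mammary adenocarcinoma 3617.4 cells expressing GFP-tagged rat glucocorticoid receptor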; for inhibition: reference of the scale not given here
[2] = test system: HCS imaging, dynein-mediated cargo transport inhibition; test: as above

Row | Structure (SMILES) | inhibition [1] | IC50 [2]
1 | CCN1CCN(C2=C(Cl)C(=O)N(Cc3ccccc3)C2=O)CC1 | 87.8% | 20.9 µM
2 | CCn1c(=O)c([N+](=O)[O-])c(Cl)c2ccccc21 | 83.9% | 30.3 µM
3 | N#Cc1cccc(NC(=O)CSc2ccc3c4c(cccc24)C(=O)c2ccccc2-3)c1 | 104% | 33.3 µM
4 | Cn1cnc([N+](=O)[O-])c1S(=O)(=O)c1ccc(Cl)cc1 | 78.2% | 3.72 µM
5 | COC(C/C=C/C(=O)COCc1ccccc1)OC | 69.3% | 8.5 µM
6 | Cc1ccc(C2=NN(C(=O)CCl)C(c3cccs3)C2)o1 (stereo not drawn) | 80.3% | 8.74 µM
7 | O=C(CCl)Nc1cc(-c2ccccc2)nn1-c1ccccc1 | 81.4% | 11.8 µM
8 | C=CCSc1nnc(C)c(/C=C/Nc2ccc(Cl)cc2)n1 | 125% | 27.7 µM
9 | COC(=O)c1cc(=O)n(CCc2ccc(OC)cc2)c(=Nc2ccc(F)c(Cl)c2)s1 | 13.5% | > 50 µM (inactive)
10 | C[C@@H]1C[C@@H]2O[C@H]2/C=C\C=C\C(=O)Cc2c(Cl)c(O)cc(O)c2C(=O)O1 | 49.4% | 0.281 µM
11 | CCOC(=O)c1c(NC(=S)N2CCOCC2)sc2c1CCN(C(=O)OCC)C2 | 74% | 33.2 µM
12 | Cc1ccc(C2=NOC(=O)/C2=C\C=C\c2ccccc2)cc1 | 71% | 36.6 µM
13 | CC1(C)CCSC(/C=C/c2ccccc2)=N1 | 92.6% | 18.7 µM
14 | Cc1ccc(C(=O)NC(C#N)=C(Cl)Cl)cc1 | 82.3% | 6.71 µM
15 | CC(=O)c1sc2nc(-c3cccs3)cc(C(F)(F)F)c2c1N | 86% | 21.6 µM
16 | COc1ccc(N(C(=O)CCl)C(C(=O)NCCc2ccccc2)c2cccs2)cc1Cl (stereo not drawn) | 93.6% | 14.8 µM
17 | COc1cc(NC(=O)Cn2ncc(Cl)c(Cl)c2=O)c(C)cc1[N+](=O)[O-] | 64.6% | 7.75 µM
18 | O=C(NC1CCCC1)C(c1ccc(F)cc1)N(Cc1ccc(F)cc1)C(=O)CCl (stereo not drawn) | 73.1% | 38.5 µM
19 | COc1ccc(CN=Cc2[nH]c3ccc(Br)c(Cl)c3c2O)cc1 | 93.4% | 28.5 µM
20 | COc1cccc(/C=C/C(=O)c2cccc([N+](=O)[O-])c2)c1OC | 27.1% | > 50 µM (inactive)
21 | O=C(CN(c1cccc(C(F)(F)F)c1)S(=O)(=O)c1ccc(Cl)c([N+](=O)[O-])c1)NCc1ccccc1 | 15.7% | > 50 µM (inactive)

Row | Structure (SMILES) | inhibition [1] | IC50 [2]
22 | CC(C)N1C/C(=C/c2cccnc2)C(=O)/C(=C/c2cccnc2)C1 | 83% | 8.41 µM
23 | COC1=C(C)C(O)=C(C(=O)/C=C/c2ccccc2)C(=O)C1(C)C | 88.2% | 12.2 µM
24 | CCOC(=O)C(=Cc1c[nH]c2ccc(S(=O)(=O)N(C)C)cc12)C(=O)OCC | 92.8% | 29.5 µM
25 | Cc1cc2oc(=O)cc(Cn3ncc(Cl)c(Cl)c3=O)c2cc1Cl | 65.7% | 20.1 µM
26 | O=C(CCl)N(C/C=C/c1ccccc1)c1ccc2c(c1)OCCO2 | 78.1% | 27.1 µM
27 | COc1ccc(C(=O)/C=C/C(=O)N(CC(=O)NCCC(C)C)Cc2cccs2)c(O)c1 | 45.7% | > 50 µM (inactive)
28 | CC(=O)Nc1sc(/C(C#N)=C\c2cccc(Cl)c2)nc1-c1ccc(C)cc1 | 109% | 8.22 µM
29 | COc1ccccc1-[n+]1c(C)cc(/C=C2\Sc3ccccc3N2C)cc1C | 92% | 9.31 µM
30 | O=C1CN(C(=O)Cn2ncc(Cl)c(Cl)c2=O)c2ccccc2N1 | 76.5% | 9.46 µM
31 | C=C1C(=O)[C@@]23[C@H](O)C[C@@H]4C(C)(C)CC[C@H](O)[C@@]4(C)[C@@H]2CC[C@@H]1[C@H]3O | 87.3% | 6.12 µM
32 | CC1(C)C(=O)Nc2ccccc2N1C(=O)Cn1ncc(Cl)c(Cl)c1=O | 71.9% | 12.3 µM
33 | COc1ccc(NC(=O)/C(Cl)=C(/Cl)S(=O)Cc2ccccc2)cn1 (stereo not drawn) | 64.4% | 19.5 µM
34 | COC(=O)c1cc(NC(=O)c2ccccc2)c(=O)oc1/C=C/Nc1ccc(Oc2ccccc2)cc1 | 102% | 1.16 µM
35 | O=C1C(Cl)=C(NCCN2CCCCC2)C(=O)c2ccccc21 | 63.5% | 31.8 µM
36 | O=C(CCl)Nc1cc(SCC(O)CO)cc([N+](=O)[O-])c1 (stereo not drawn) | 88% | 10.5 µM
37 | CS(=O)(=O)c1cc([N+](=O)[O-])c(Sc2nc3ccccc3[nH]2)c([N+](=O)[O-])c1 | 22.9% | > 50 µM (inactive)
38 | Cn1c(=O)c([N+](=O)[O-])c(Oc2ccccc2)c2ccccc21 | 15.3% | > 50 µM (inactive)
39 | Cc1cc(Cl)n2c(nc3cc(F)c(F)cc32)c1C#N | 36.6% | 25.5 µM
40 | O=C1NC(=O)N(Cc2ccc(F)cc2)C(=O)/C1=C\C=C\c1ccco1 | 74.8% | 30.9 µM
41 | Nc1c(C(=O)c2cccs2)sc2nsc(SCCN3CCCCC3)c12 | 11.4% | > 50 µM (inactive)
42 | O=[N+]([O-])c1ccc(C2=NN(c3ccccc3)C(c3ccco3)C2)cc1 (stereo not drawn) | – | 32.3 µM

— PubChem BioAssay AID463136 (University of Pittsburgh Molecular Library Screening Center, 2010)
